Measurements as given in US20070021509A1, “Phosphate transport inhibitors” (priority 2001, published 2007).
Like-named read-outs stand apart in the source and are kept apart here.

Test system: phosphate uptake by rabbit intestinal Brush Border Membrane Vesicles (BBMV)
Assay: 33PO4 uptake in rabbit intestinal BBMV (HTS), phosphate transporter inhibition in vitro
Type: biochemical
Details: for IC50: read-out: IC50
How it was run: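 BBMV from duodenal mucosa of male New Zealand White rabbits, diluted to about 0.5-2.0 mg/mL protein. Uptake buffers carried 33PO4 at 200,000 CPM/19 μL. Controls: Na uptake buffer (max), plus 100 μM KH2PO4 pH 7.4 (mid), K uptake buffer (min).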

| Structure (SMILES) | IC50 (Table 10, phosphate uptake) [µM] | other results |
| --- | --- | --- |
| CCCCCCCc1ccc(C(=O)Nc2ccc(Br)cc2P(=O)(OCC)OCC)cc1 [Compound 247] | – | % Inhib. at 100 μM (Table 8, 100 μM compound): 53% |
| CCOP(=O)(OCC)c1cc(Br)ccc1NC(=O)c1ccc(OC)c(OC)c1 [Compound 248] | – | % Inhib. at 100 μM (Table 8, 100 μM compound): 48% |
| O=C(/C=C/c1ccc(Br)cc1)c1cc(Cl)cc(Cl)c1O [Compound 249] | – | % Inhib. at 100 μM (Table 9, 100 μM compound): 50% |
| CCOP(=O)(OCC)c1cc(Br)ccc1NC(=O)c1ccc(OC(F)(F)F)cc1 [Compound 250] | < 50 | – |
| O=C(Nc1ccc(Br)cc1)c1cc(Br)cc(Br)c1O [Compound 251] | 51 to 100 | – |
| O=C(Nc1ccc(Cl)c(Cl)c1)c1cc(Cl)cc(Cl)c1O [Compound 252] | 51 to 100 | – |
| O=C(Nc1ccc(Br)cc1)c1cc(Br)cc(Br)c1O [Compound 253] | 101 to 500 | – |
| O=C(Nc1ccc(Oc2ccc3ccccc3c2Br)c(Cl)c1)c1cc(Br)cc(Br)c1O [Compound 254] | 101 to 500 | – |
| O=C(Nc1ccc(Cl)cc1)c1cc(Br)cc(Br)c1O [Compound 255] | 101 to 500 | – |
| O=C(Nc1cc(C(F)(F)F)ccc1C(F)(F)F)c1cc(Br)cc(Br)c1O [Compound 256] | 101 to 500 | – |
| COc1ccc(NC(=O)c2cc3ccc4c5ccccc5[nH]c4c3cc2O)cc1 [Compound 257] | 101 to 500 | – |
| O=C(Nc1ccc(Oc2ccc(Cl)c3ccccc23)c(Cl)c1)c1cc(Cl)cc(Cl)c1O [Compound 258] | 101 to 500 | – |
| CCOP(=O)(OCC)c1cc(Br)ccc1NC(=O)c1ccc(OC(F)(F)F)cc1 [Compound 259] | 101 to 500 | – |
| CCOP(=O)(OCC)c1cc(Br)ccc1NC(=O)c1ccc(F)cc1F [Compound 260] | 101 to 500 | – |
| O=C(Nc1ccc(Br)cc1C(=O)O)c1ccc(Cl)c([N+](=O)[O-])c1 [Compound 261] | 101 to 500 | – |
| CCOP(=O)(OCC)c1cc(Br)ccc1NC(=O)c1cc(F)c(Cl)cc1Cl [Compound 262] | 101 to 500 | – |
| O=C(Nc1ccc(Br)cc1)c1cc(Br)cc(Br)c1OCCP(=O)(O)O [Compound 263] | 101 to 500 | – |
| CCOP(=O)(OCC)c1cc(Br)ccc1NC(=O)c1cc(C(F)(F)F)ccc1C(F)(F)F [Compound 264] | 101 to 500 | – |

| Structure (SMILES) | IC50 (Table 10, phosphate uptake) [µM] | other results |
| --- | --- | --- |
| CCOP(=O)(OCC)c1cc(Br)ccc1NC(=O)c1cccc2ccccc12 [Compound 265] | 501 to 1000 | – |
| O=C(Nc1ccc(Br)cc1)c1cc(Br)cc(Br)c1 [Compound 266] | 501 to 1000 | – |
| CCOP(=O)(OCC)c1cc(Br)ccc1NC(=O)c1ccc(Cl)c(Cl)c1 [Compound 267] | 501 to 1000 | – |
| O=C(Nc1ccc(Br)cc1P(=O)(O)O)c1ccc(OC(F)(F)F)cc1 [Compound 268] | > 1500 | – |
| O=C(Nc1ccccc1)c1ccccc1P(=O)(O)O [Compound 269] | > 1500 | – |
| CCOP(=O)(OCC)c1cc(Br)ccc1NC(=O)c1c(Cl)cc(Cl)cc1Cl [Compound 270] | > 1500 | – |
| O=C(Nc1ccc(Br)cc1I)c1ccc(OC(F)(F)F)cc1 [Compound 271] | > 1500 | – |
| CCOP(=O)(OCC)c1cc(Br)ccc1NC(=O)c1ccc(OC(F)(F)F)cc1 [Compound 272] | > 1500 | – |
| O=C(CCc1ccc(O)cc1)c1c(O)cc(O)cc1O [Compound 273] | – | IC50 (Table 11, phosphate uptake): 501 to 1000 µM |
| O=C(/C=C/c1ccco1)c1cccc(O)c1 [Compound 274] | – | IC50 (Table 11, phosphate uptake): 501 to 1000 µM |
| COc1cccc(C(=O)/C=C/c2ccco2)c1 [Compound 275] | – | IC50 (Table 11, phosphate uptake): 501 to 1000 µM |
| O=C(/C=C/c1ccco1)c1cccc(Oc2ccccc2)c1 [Compound 276] | – | IC50 (Table 11, phosphate uptake): 501 to 1000 µM |
| O=C(/C=C/c1cccc(F)c1)c1cccc(O)c1 [Compound 277] | – | IC50 (Table 11, phosphate uptake): 501 to 1000 µM |
| COc1cccc(C(=O)/C=C/c2cccc(F)c2)c1 [Compound 278] | – | IC50 (Table 11, phosphate uptake): > 1500 µM |
| O=C(/C=C/c1cccc(F)c1)c1cccc(Oc2ccccc2)c1 [Compound 279] | – | IC50 (Table 11, phosphate uptake): > 1500 µM |
| O=S(=O)(Cc1ccc(Cl)cc1Cl)c1cc(C(F)(F)F)cc(C(F)(F)F)c1 [Compound 280] | – | % Inhib. at 100 μM (Table 12, 100 μM compound): 57% |
| Cc1ccc(S(=O)(=O)Cc2c(Cl)cccc2Cl)cc1 [Compound 281] | – | % Inhib. at 100 μM (Table 12, 100 μM compound): 53% |
| Cc1cccc(CS(=O)(=O)c2ccc(Cl)cc2)c1F [Compound 282] | – | % Inhib. at 100 μM (Table 12, 100 μM compound): 53% |
